Assay [1] deals with Tau phosphorylation at Thr212 (pThr212) in HEK293T cells transfected with DYRK1A and MAPT. Kind of assay: phosphoTau (Thr212) AlphaLISA tau phosphorylation cell assay. The note with it: HEK-293T, HEK293T cells transiently transfected with human DYRK1A and MAPT, compound treatment 18-24 hours, read-out: pTau (Thr212) EC50. It counts as cell-based. On the procedure: Representative compounds were screened using the assay procedure for tau phosphorylation activity described below.
HEK293T cells (ATCC, CRL3216) cultured in DMEM (Thermo Fisher Scientific, 10566024) supplemented with 10% FBS (Corning, 35-011-CV) and Penicillin/Streptomycin (Thermo Fisher Scientific, 15140163) were seeded in a 75 cm^2 flask at 8.1 × 10^6 cells/flask. The HEK293T cells were then transiently transfected with 5 µg DYRK1A (NM_001396) human untagged clone (OriGene, SC314641) and 2.5 µg MAPT (441 a.a. Tau gene) (NM_005910) human untagged clone (OriGene, TP313312) using Lipofectamine 3000 (Thermo Fisher Scientific, L30000015) and incubated for 20-30 hours in a humidified incubator at 37° C. and 5% CO^2. Post-incubation, HEK293T cells transfected with the DYRK1A and MAPT expression vectors were harvested and seeded in BioCoat poly-D lysine coated 96-well plates (Corning, 354461) at 3 × 10^4 cells/well.
The above synthesized compounds were screened using the cell assay procedure to assess decreased Tau phosphorylation at Thr212 (pThr212) described below.
Each compound was dissolved in DMSO (Sigma-Aldrich, D8418-100 mL) as a 10 mM stock. 10 mM stocks were serially diluted 1:3, 10-point dose-response curve and added to the cells with a final concentration ranging from 20 µM to 1.1 nM. Cells were treated with compounds in duplicate and incubated for 18-24 hours in a humidified incubator at 37° C. and 5% CO^2.
Following the overnight compound treatment, cells were lysed with 1X Alpha Surefire Ultra Lysis Buffer (Perkin Elmer, ALSU-LB-100ML) complemented with 1X Halt Phosphatase Inhibitor Cocktail (Thermo Fisher Scientific, 78427) and 1X Halt Protease Inhibitor Cocktail (Thermo Fisher Scientific, 78438). Lysates were spun down at 12,000 g for 10 min to remove any cellular debris and 5 µL of lysates were dispensed into a 384-well Opti-Plate (Perkin Elmer, 6007290) for the measurement of Tau phosphorylation in the phosphoTau (Thr212) AlphaLISA assay. Donor antibody, biotinylated HT7Tau (Thermo Fisher Scientific, MN1000B), and acceptor antibody, pThr212Tau (Thermo Fisher Scientific, 44740G) were both added to the cell lysates at a final concentration of 3 nM and incubated for 1 hour at room temperature. Following incubation of the lysates with the donor and acceptor antibodies, anti-rabbit IgG(Fc specific) AlphaLISA acceptor beads (Perkin Elmer, AL104C) were added at a 10 ug/mL final concentration and incubated for 1 hour at room temperature protected from light. Lastly, AlphaScreen streptavidin donor beads (PerkinElmer, 6760002) were added at 40 ug/mL final concentration and incubated for 1 hour at room temperature protected from light. Plates were read at Ex= […], and Em=615 nm on the EnVision Multilabel Plate Reader (Perkin Elmer)
phospho-Tau (Thr212) AlphaLISA signal was used to plot, draw the curve fitting, and determine each compound’s EC50 in Prism (GraphPad).
In general terms: Bead proximity is the source of the signal in Alpha formats.

Assay [2] has as its target recombinant DYRK1A kinase (Homo sapiens (Human), UniProt Q13627). The experiment in a line: DYRK1A kinase assay (Ser/Thr 18 peptide Z-lyte FRET assay). It counts as biochemical. As to conditions: recombinant DYRK1A 0.25 µg/mL, ATP 15 µM, Ser/Thr peptide 18 4 µM, one hour at room temperature; table head prints EC50, method says IC50. The method in brief: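 Recombinant human DYRK1A (0.25 µg/mL) with 15 µM ATP and 4 µM Ser/Thr 18 peptide was incubated 1 h at room temperature with compound (11-point, 10 µM top), in duplicate. Z-lyte FRET read-out (coumarin/fluorescein emission ratio) was converted to percent phosphorylation; IC50 from non-linear regression.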

Molecules are shown by their SMILES.

As a reminder, the EC50 is the concentration needed to bring the measured effect to its halfway point. Regarding `CC(C)(F)CNc1ncc2c(-c3ccc4nccn4c3)ccn2n1` [Compound 3, N-(2-Fluoro-2-methylpropyl)-5-(imidazo[1,2-a]pyridin-6-yl)pyrrolo[2,1-f] [1,2,4]triazin-2-amine], the EC50 is 1840 nM in assay [1] and 23 nM in assay [2].

On to `FC1(F)CC(Nc2ncc3c(-c4ccc5nccn5c4)ccn3n2)C1` [Compound 23, N-(3,3-Difluorocyclobutyl)-5-(imidazo[1,2-a]pyridin-6-yl)pyrrolo[2,1-f] [1,2,4]triazin-2-amine], for which the EC50 in assay [1] is 794 nM; in assay [2] it was 28 nM.

As for `CO[C@H]1C[C@@H](Nc2ncc3c(-c4ccc5nccn5c4)ccn3n2)C1` [Compound 26, 5-(Imidazo[1,2-a]pyridin-6-yl)-N-(cis-3-methoxycyclobutyl)pyrrolo[2,1-f] [1,2,4]triazin-2-amine], the EC50 was 238 nM in assay [1] and 11 nM in assay [2].

Consider `FC1(F)CCC(Nc2ncc3c(-c4ccc5nccn5c4)ccn3n2)CC1` [Compound 43, N-(4,4-Difluorocyclohexyl)-5-(imidazo[1,2-a]pyridin-6-yl)pyrrolo[2,1-f] [1,2,4]triazin-2-amine], for which the half-maximal effective concentration (EC50) in assay [1] is 504 nM; in assay [2], 19 nM.

For `c1cn2cc(-c3ccn4nc(NC5COC5)ncc34)ccc2n1` [Compound 65, 5-(Imidazo[1,2-a]pyridin-6-yl)-N-(oxetan-3-yl)pyrrolo[2,1-f][1,2,4]triazin-2-amine], the 50% effective concentration (EC50) worked out at 828 nM in assay [1] and 25 nM in assay [2].

As to `CC(C)(F)CNc1ncc2c(-c3cnc4nccn4c3)ccn2n1` [Compound 216, N-(2-Fluoro-2-methylpropyl)-5-(imidazo[1,2-a]pyrimidin-6-yl)pyrrolo[2,1-f] [1,2,4]triazin-2-amine], the EC50 in assay [1] stood at 455 nM; in assay [2], 12 nM.

For the compound `FC1(CNc2ncc3c(-c4cnc5nccn5c4)ccn3n2)COC1` [Compound 228, N-((3 -Fluorooxetan-3-yl)methyl)-5-(imidazo [1,2-a]pyrimidin-6-yl)pyrrolo [2,1-f][1,2,4]triazin-2-amine], the EC50 was determined as 292 nM in assay [1] and 13 nM in assay [2].

Turning to `FC1(F)CCC(Nc2ncc3c(-c4cnc5nccn5c4)ccn3n2)CC1` [Compound 256, N-(4,4-Difluorocyclohexyl)-5-(imidazo[1,2-a]pyrimidin-6-yl)pyrrolo[2,1-f] [1,2,4]triazin-2-amine], the EC50 in assay [1] turned out to be 220 nM; in assay [2], 5 nM.

For `CO[C@H]1CC[C@@H](Nc2ncc3c(-c4cnc5nccn5c4)ccn3n2)CC1` [Compound 259, 5-(Imidazo[1,2-a]pyrimidin-6-yl)-N-(cis-4-methoxycyclohexyl)pyrrolo[2,1-f][1,2,4]triazin-2-amine], the EC50 in assay [1] turned out to be 150 nM; in assay [2] it was 7 nM.

For the compound `FC1(F)CC2(CC(Nc3ncc4c(-c5cnc6nccn6c5)ccn4n3)C2)C1` [Compound 281, N-(6,6-Difluorospiro[3.3]heptan-2-yl)-5-(imidazo[1,2-a]pyrimidin-6-yl) pyrrolo[2,1-f] [1,2,4]triazin-2-amine], the EC50 in assay [1] is 70 nM; in assay [2], 3 nM.

With `c1cn2cc(-c3ccn4nc(NC5CC6(COC6)C5)ncc34)cnc2n1` [Compound 282, 5-(Imidazo[1,2-a]pyrimidin-6-yl)-N-(2-oxaspiro[3.3]heptan-6-yl)pyrrolo[2,1-f][1,2,4]triazin-2-amine], the results for the EC50 in assay [1] and in assay [2] were 172 nM and 7 nM, respectively.

For the compound `Cc1nc2ncc(-c3ccn4nc(NCC(C)(C)F)ncc34)cc2n1C(C)C` [Compound 571, N-(2-Fluoro-2-methylpropyl)-5-(1-isopropyl-2-methyl-1H-imidazo[4,5-b]pyridin-6-yl)pyrrolo[2,1-f] [1,2,4]triazin-2-amine], the figures for the concentration giving a half-maximal response (EC50) in assay [1] and in assay [2] were 725 nM and 11 nM, respectively.

As to `Cc1nc2ncc(-c3ccn4nc(NCC(C)(C)F)ncc34)cc2n1C1CCOCC1` [Compound 784, N-(2-Fluoro-2-methylpropyl)-5-(2-methyl-1-(tetrahydro-2H-pyran-4-yl)-1H-imidazo[4,5-b]pyridin-6-yl)pyrrolo[2,1-f] [1,2,4]triazin-2-amine], the EC50 is 516 nM in assay [1] and 11 nM in assay [2].

`Cc1nc2ccc(-c3ccn4nc(NC5CCC(F)(F)CC5)ncc34)nc2n1CCF` [Compound 1037, N-(4,4-Difluorocyclohexyl)-5-(3-(2-fluoroethyl)-2-methyl-3H-imidazo[4,5-b]pyridin-5-yl)pyrrolo[2,1-f][1,2,4]triazin-2-amine]: the EC50 amounted to 403 nM in assay [1] and 20 nM in assay [2].

Consider `Cc1nc2ccc(-c3ccn4nc(NCC(C)(C)F)ncc34)nc2n1CC(F)F` [Compound 1068, N-(2-Fluoro-2-methylpropyl)-5-(3-(2,2-difluoroethyl)-2-methyl-3H-imidazo[4,5-b]pyridin-5-yl)pyrrolo[2,1-f][1,2,4]triazin-2-amine], for which the EC50 in assay [1] is 159 nM; in assay [2] it was 4 nM.

Regarding `Cc1nc2ccc(-c3ccn4nc(NC5CCC(F)(F)CC5)ncc34)nc2n1CC(F)F` [Compound 1108, N-(4,4-Difluorocyclohexyl)-5-(3-(2,2-difluoroethyl)-2-methyl-3H-imidazo [4,5-b]pyridin-5-yl)pyrrolo[2,1-f][1,2,4]triazin-2-amine], the EC50 in assay [1] turned out to be 126 nM; in assay [2], 8 nM.

Regarding `CO[C@H]1CC[C@@H](Nc2ncc3c(-c4ccc5nc(C)n(CC(F)F)c5n4)ccn3n2)CC1` [Compound 1111, 5-(3-(2,2-Difluoroethyl)-2-methyl-3H-imidazo[4,5-b]pyridin-5-yl)-N-(cis-4-methoxycyclohexyl)pyrrolo[2,1-f][1,2,4]triazin-2-amine], the EC50 in assay [1] was 71 nM; in assay [2], 3 nM.

`COCCn1c(C)nc2ccc(-c3ccn4nc(NC5CCC(F)(F)CC5)ncc34)nc21` [Compound 1179, N-(4,4-Difluorocyclohexyl)-5-(3-(2-methoxyethyl)-2-methyl-3H-imidazo [4,5-b]pyridin-5-yl)pyrrolo[2,1-f][1,2,4]triazin-2-amine]: the 50% effective concentration (EC50) in assay [1] is 470 nM; in assay [2], 26 nM.

`N[C@H]1CC[C@@H](Nc2ncc3c(-c4ccc5ncccc5c4)ccn3n2)CC1` [Compound 1332, cis-N^1-(5-(Quinolin-6-yl)pyrrolo[2,1-f][1,2,4]triazin-2-yl)cyclohexane-1,4-diamine]: the EC50 is 524 nM in assay [1] and 20 nM in assay [2].

For `O[C@H]1CC[C@@H](Nc2ncc3c(-c4ccc5nccnc5c4)ccn3n2)CC1` [Compound 1393, cis-4-((5-(Quinoxalin-6-yl)pyrrolo[2,1-f][1,2,4]triazin-2-yl)amino) cyclohexan-1-ol], the concentration for a half-maximal effect (EC50) came out at 718 nM in assay [1] and 23 nM in assay [2].

As for `C[C@]1(O)CC[C@@H](Nc2ncc3c(-c4ccc5nccnc5c4)ccn3n2)CC1` [Compound 1394, (1s,4s)-1-Methyl-4-((5-(quinoxalin-6-yl)pyrrolo[2,1-f][1,2,4]triazin-2-yl)amino)cyclohexan-1-ol], the EC50 in assay [1] worked out at 709 nM; in assay [2], 14 nM.

Take `CO[C@H]1CC[C@@H](Nc2ncc3c(-c4ccc5nccnc5c4)ccn3n2)CC1` [Compound 1395, N-(cis-4-Methoxycyclohexyl)-5-(quinoxalin-6-yl)pyrrolo[2,1-f][1,2,4] triazin-2-amine]: the EC50 in assay [1] came to 380 nM; in assay [2] it was 11 nM.

With `c1cnc2cc(-c3ccn4nc(NC5CC6(COC6)C5)ncc34)ccc2n1` [Compound 1418, 5-(Quinoxalin-6-yl)-N-(2-oxaspiro[3.3]heptan-6-yl)pyrrolo[2,1-f][1,2,4] triazin-2-amine], the EC50 was 212 nM in assay [1] and 11 nM in assay [2].

The values are drawn from patent US20230312605A1, “PYRROLO[2,1-F][1,2,4]TRIAZINES AND PREPARATION AND USES THEREOF” (BioSplice Therapeutics, Inc., priority 2021, published 2023).
